logP	SMILES
0.08	Nc1ncnc2c1ncn2[C@H]1C[C@H](F)[C@@H](CO)O1
-1.11	O=c1[nH]c(=O)n([C@H]2CC[C@@H](CO)O2)cc1Cl
0.21	O=c1[nH]c(=O)n(C2CC(F)C(CO)O2)cc1I (stereo not given)
-1.51	O=c1ccn(C2CC(O)C(CO)O2)c(=O)[nH]1 (stereo not given)
-0.49	O=c1ccn(C2CC(F)C(CO)O2)c(=O)[nH]1 (stereo not given)
-0.04	O=c1[nH]c(=O)n(C2CC(F)C(CO)O2)cc1Br (stereo not given)
-0.66	Nc1nc(=O)c2ncn([C@H]3C[C@H](F)[C@@H](CO)O3)c2[nH]1
-0.52	Nc1nc(N)c2ncn(C3CC(O)C(CO)O3)c2n1 (stereo not given)
-1.01	Nc1nc(=O)c2ncn([C@H]3CC[C@@H](CO)O3)c2[nH]1
0.24	[N-]=[N+]=N[C@H]1C[C@H](n2cnc3c(N)nc(N)nc32)O[C@@H]1CO
-0.32	[N-]=[N+]=NC1CC(n2ccc(=O)[nH]c2=O)OC1CO (stereo not given)
-0.17	O=c1[nH]c(=O)n([C@H]2C[C@H](F)[C@@H](CO)O2)cc1Cl
-1.07	O=c1ccn([C@H]2C=C[C@@H](CO)O2)c(=O)[nH]1
0.05	Nc1nc(N)c2ncn(C3CC(F)C(CO)O3)c2n1 (stereo not given)
-1.21	Nc1nc(=O)c2ncn([C@H]3C=C[C@@H](CO)O3)c2[nH]1
-0.28	Cc1cn([C@H]2C[C@H](F)[C@@H](CO)O2)c(=O)[nH]c1=O
0.35	[N-]=[N+]=N[C@H]1C[C@H](n2cnc3c(N)ncnc32)O[C@@H]1CO
-0.99	O=c1[nH]c(=O)n(C2CCC(CO)O2)cc1Br (stereo not given)
-0.61	O=c1[nH]c(=O)n([C@H]2CC[C@@H](CO)O2)cc1I

SMILES	logP
[N-]=[N+]=NC1C(CO)OC(n2cnc3c(N)ncnc32)C1N=[N+]=[N-] (stereo not given)	0.8
